Assays:
[1] = target: ERβ (Homo sapiens, UniProt Q92731); settings: HeLa cells, estradiol (10^−9), FIG. 14B
From the text: (§1) HeLa cells were transfected with either an ERα expression vector (see FIG. 14A) or an ERβ expression vector (see FIG. 14B) together with an estrogen responsive ERE-TK-luceriferase reporter construct.

[2] = Uterotrophic assay in immature rats; settings: 21 day old immature rats, oral
Description: FIG. 5. […] The data shown represent the mean value (±SEM).
Twenty-one day old female Sprague-Dawley rats (30-35 gms) were obtained from Harlan or Taconic Laboratories. Animals were sorted randomly into treatment groups of five, and average weights were recorded for each treatment group. Weights were recorded on each treatment day. […] On day of dosing, drug was diluted in 0.5% methyl cellulose, viscosity of 2% at 25° C.:400 centipoises (Sigma, St. Louis, Mo.)). Oral dosing by gavage was based on a total volume of 10 ml/kg body weight. […] Subcutaneous dosing was based on a total of 2 ml/kg body weight. […] On day 4, animals were sacrificed by C02 asphyxiation, body weights were obtained and uteri were removed, blotted and weighed. Data were expressed as uterine weight/body weight.
In this assay, uterine wet weight was used as a measure of ER-agonist activity in this tissue (FIG. 5).

[3] = test system: MCF-7/LCC2; test: LCC2 study, MCF-7/LCC2 tumors in nude mice; assay type: in vivo, mouse; settings: after 8 weeks, 1.0 mg every three days, FIG. 11
Description: This experiment was conducted to determine the ability of GW5638 to retard the growth of this cell line in nude mice relative to control or tamoxifen treated tumors.
40 OVX mice were prepared to accept cells and grouped as follows:
Control animals received nothing and groups 3 and 4 received 0.1 ml injections in corn oil every three days. Tumors were measured Q3 days with calipers, and the area calculated as follows: Area=½×w/2×π.

[4] = test system: ER-TAF1; test: C3 promoter-luciferase cotransfection assay in HepG2 cells, ER-TAF1 (AF-2 disrupted); assay type: cell-based, human; settings: for agonist activity on ER-TAF1: ER-TAF1, compound alone, FIG. 1B
From the text: (§2) FIGS. 1A and 1B. […] The human C3 promoter (−1807 to +58) fused to the firefly luciferase reporter gene was transfected along with an expression plasmid containing (FIG. 1A) the wild-type human estrogen receptor (ERwt), or (FIG. 1B) a mutated ER in which the AF-2 function had been disrupted (ER-TAFl) into HepG2 cells and tested for transcriptional activation in the presence of increasing concentrations of ER-modulator as indicated. Transfections were normalized for efficiency and cell number by cotransfecting an expression plasmid containing β-galactosidase. The normalized response was obtained by dividing light units by the activity of β-galactosidase as measured in an enzymatic assay. Triplicate transfections were performed. The data shown are representative of multiple experiments performed under similar conditions.
(§3) FIGS. 2A-2C. […] FIG. 2A. […] FIG. 2B. […] FIG. 2C. […] Transfections were normalized for efficiency and cell number by cotransfecting an expression plasmid containing β-galactosidase. The normalized response was obtained by dividing light units by the activity of β-galactosidase as measured in an enzymatic assay. Representative assays are shown in which triplicate transfections were performed. Error bars represent the standard error of the mean (SEM).
(§4) HepG2 cells were maintained in Modified Eagles Medium (MEM) (Life Technologies, Grand Island, N.Y.) plus 10% Fetal Calf Serum (FCS) (Life Technologies). Cells were plated in 24 well plates (coated with gelatin) 24 hours prior to transfection. DNA was introduced into the cells using Lipofectin (Life Technologies). Briefly, triplicate transfections were performed using 3 μg of total DNA. For standard transfections, 500 ng of pCMV-β-Gal (normalization vector), 1500 ng reporter (variable) and 1000 ng receptor (pRST7-hER (Dana et al, Mol. Endocrinol. 8:1193-1207 (1994)) were used for each triplicate. Incubation of the cells with Lipofectin proceeded for 3 hrs, at which time media was removed, cells were washed with PBS and then induced with the appropriate hormone diluted in phenol red-free media containing 10% charcoal stripped CS (Cyclone Inc.). Incubation with hormone continued for 48 hrs, after which cells were lysed and assayed for luciferase and β-galactosidase activity as previously described (Norris et al, JBC 270:22777-22782 (1995)).
(§5) A series of in vitro screens have been developed that permit the classification of ER-modulators into four mechanistically distinct groups (Tzukerman et al, Mol. Endocrinol. 8:21-30 (1994)). […] Using these assays, it has been possible to derive “fingerprints” of known ER-modulators (McDonnell et al, Mol. Endocrinol. 9:659-669 (1995)).
(§6) Subsequently, the transfected cells were assayed for luceriferase and β-galactosidase activity. Each data point in this experiment represents the average of triplicate determinations of the transcriptional activity under given experimental conditions.

[5] = test system: ER-VP16; test: ER-VP16 reporter of nuclear localization and DNA binding status of ER; assay type: cell-based
From the text: This was addressed using a modified ER (ER-VP16) to report on the nuclear localization and the DNA binding status of ER within a cell following ligand binding. This modified protein behaves exactly like ER in all respects except it activates transcription upon interaction with an estrogen response element (ERE) independent of the nature of the bound ligand (McDonnell et al, Mol. Endocrinol. 9:659-669 (1995)).

[6] = Bone mineral density in ovariectomized rats (DEXA, pQCT); assay type: in vivo, rat; settings: 90-day old OVX rats, oral, 28 days, FIG. 3A
Description: FIGS. 3A and 3B. […] FIG. 3A. […] FIG. 3B.
Animal preparation. […] At sacrifice, animals were euthanized with C02, body weights were recorded and the uteri were removed and weighed. Uterus, vagina and mammary tissue were fixed in 10% neutral buffered formalin. Samples for histologic processing were taken from the mid-point of each uterine horn. Tissue samples were embedded in paraffin, stained with haematoxylin and eosin and evaluated microscopically. Lumbar vertebrae and both left and right tibiae were excised. Total blood cholesterol was measured (Roche Biomedical Laboratories).

[7] = target: T1, wild-type human estrogen receptor (ERwt) (Homo sapiens, UniProt P03372); test: C3 promoter-luciferase cotransfection assay in HepG2 cells, ERwt; assay type: cell-based
T1 construct: expressed in transfected cells; host or cells: HepG2
T1 sequence (P03372 1-595): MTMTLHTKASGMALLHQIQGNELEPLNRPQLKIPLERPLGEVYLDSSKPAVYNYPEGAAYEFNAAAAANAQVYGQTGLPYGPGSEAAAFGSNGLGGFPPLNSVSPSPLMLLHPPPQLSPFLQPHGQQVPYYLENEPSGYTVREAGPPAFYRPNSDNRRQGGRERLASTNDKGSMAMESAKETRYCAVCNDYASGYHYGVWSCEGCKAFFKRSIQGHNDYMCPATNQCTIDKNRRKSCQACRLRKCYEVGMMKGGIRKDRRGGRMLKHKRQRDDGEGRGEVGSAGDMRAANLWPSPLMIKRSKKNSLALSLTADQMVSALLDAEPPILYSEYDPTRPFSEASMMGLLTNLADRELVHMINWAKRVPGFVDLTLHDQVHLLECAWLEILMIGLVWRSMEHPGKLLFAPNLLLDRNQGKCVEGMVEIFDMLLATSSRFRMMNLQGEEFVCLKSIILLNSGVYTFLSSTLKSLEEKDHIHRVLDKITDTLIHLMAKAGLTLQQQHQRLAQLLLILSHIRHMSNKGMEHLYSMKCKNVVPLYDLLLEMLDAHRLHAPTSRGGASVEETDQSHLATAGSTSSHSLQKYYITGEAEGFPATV
From the text: as §2, §3, §4, §5, §6

[8] = target: T2, human ER (Homo sapiens, UniProt P03372); assay type: cell-based; settings: MCF-7 cells, in the presence of 17-β-estradiol, 48 h, FIG. 12
T2 construct: expressed in transfected cells; host or cells: MCF-7

[9] = target: T3, ERα (Homo sapiens, UniProt P03372); assay type: cell-based; settings: HeLa cells, estradiol (10^−9), FIG. 14A
T3 construct: expressed in transfected cells; host or cells: HeLa
From the text: as §1

[10] = test system: MCF-7 cells; test: [3H]-thymidine incorporation, E2 stimulated MCF-7 cell proliferation; assay type: cell-based, human; settings: FIG. 19
Description: Experimental Design: Plate between 25,000 and 50,000 cells per well onto 24-well plates. Cells are plated in phenol red-free media. After attachment, cells are stimulated with either antiestrogen alone or estrogen and antiestrogen. Induction time ranges from 12-48 hours, depending on experiment.
Add 4λ (4 μCi) thymidine, [methyl-^3H]-to each well.
Incubate at 37° C. for 2-4 hours.
Aspirate media and wash twice with ice cold PBS.
Wash once with ice cold 10% TCA (trichloroacetic acid).
Add 2 mL 10% TCA to each well.
Incubate at 4° C. for 1-2 hours.
Transfer each well to scintillation vial containing 2 mL scintillation fluid.

Chain of ERβ (Q92731 whole entry): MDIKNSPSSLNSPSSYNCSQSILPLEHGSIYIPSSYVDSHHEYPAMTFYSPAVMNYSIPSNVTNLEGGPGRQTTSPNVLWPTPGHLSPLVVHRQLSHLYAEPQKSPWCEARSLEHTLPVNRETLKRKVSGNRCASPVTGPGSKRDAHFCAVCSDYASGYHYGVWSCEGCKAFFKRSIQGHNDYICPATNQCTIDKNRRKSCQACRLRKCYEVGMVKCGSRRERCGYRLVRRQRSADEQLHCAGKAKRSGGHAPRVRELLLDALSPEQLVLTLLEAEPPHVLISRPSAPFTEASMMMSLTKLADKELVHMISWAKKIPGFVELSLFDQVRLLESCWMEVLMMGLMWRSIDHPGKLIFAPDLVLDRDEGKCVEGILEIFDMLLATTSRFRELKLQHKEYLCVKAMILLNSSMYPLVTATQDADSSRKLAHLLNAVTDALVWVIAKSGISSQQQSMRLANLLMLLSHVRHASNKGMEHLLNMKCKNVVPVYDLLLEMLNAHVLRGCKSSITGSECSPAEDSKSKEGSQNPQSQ

O=C(c1ccc(OCCN2CCCCC2)cc1)c1c(-c2ccc(O)cc2)sc2cc(O)ccc12 [raloxifene, reference compound]
inhibition of estradiol activated transcription, ERβ [1]: neither raloxifene nor idoxifene manifest potent antagonist activity

CC/C(=C(\c1ccccc1)c1ccc(OCCN(C)C)cc1)c1ccccc1 [tamoxifen, reference compound]
lowest dose with uterotrophic activity [2]: 0.1 µmol/kg/day | tumor growth [3]: equally inhibit growth of this tumor

C[C@]12CC[C@@H]3c4ccc(O)cc4C[C@@H](CCCCCCCCC[S+]([O-])CCCC(F)(F)C(F)(F)F)[C@H]3[C@@H]1CC[C@@H]2O (stereo partly drawn) [ICI182,780, reference compound]
agonist activity on ER-TAF1 [4]: functionally inactive | interaction of ER with target DNA [5]: facilitate efficient interactions of ER with target DNA

C[C@]12CC[C@@H]3c4ccc(O)cc4CC[C@H]3[C@@H]1CC[C@@H]2O [estradiol, 17β-estradiol, reference compound]
bone mineral density, lumbar spine [6]: BMD was maintained

CC/C(=C(\c1ccc(O)cc1)c1ccc(/C=C/C(=O)O)cc1)c1ccccc1 [GW7604]
reversal of the inverse agonist activity of ICI182,780 ([7]; C3 promoter, co-addition with ICI182,780, FIG. 2C): completely reversed | inhibition of the agonist activity manifested by tamoxifen or estradiol ([7]; ERwt, 10^−8M 17-β-estradiol or tamoxifen, FIG. 2A): inhibited | agonist / inverse agonist activity on the C3 promoter ([7]; ERwt, compound alone, FIG. 1A/2A): do not demonstrate any agonist or antagonist activity | inhibition of the partial agonist activity of raloxifene on ER-TAF1 ([4]; ER-TAF1): inhibited | inhibition of estradiol- and tamoxifen-induced ER-TAF1 transcriptional activity ([4]; ER-TAF1, FIG. 2B): capable of inhibiting | agonist activity on ER-TAF1 [4]: functionally inactive | agonist activity on ER mutants ([4]; any ER-mutant examined, FIG. 13): does not exhibit agonist activity | interaction of ER with target DNA [5]: facilitate efficient interactions of ER with target DNA | antiestrogen activity on C3-Luc transcription [8]: Functions as an Antiestrogen | inhibition of estradiol activated transcription, ERα [9]: potent pan-antagonist of both forms of the human estrogen receptor | inhibition of estradiol activated transcription, ERβ [1]: potent pan-antagonist of both forms of the human estrogen receptor | E2 stimulated MCF-7 cell proliferation [10]: Inhibits E2 Stimulated MCF-7 Cell Proliferation
